Assay results taken from patent US9890176B2, “Mannose derivatives for treating bacterial infections” (Vertex Pharmaceuticals Incorporated, priority 2013, dated 2018).

Test system: bacterial strain LF82 binding to the glycoprotein BSA-(Mannose)3
Test: Bacterial Binding Assay (BBA)
Format: cell-based, Escherichia coli
Settings: read-out: Bacterial Binding Assay IC50
Source text: The purpose of the Bacterial Binding Assay (BBA) is to determine the inhibition activity of selective FimH antagonists on the bacterial strain LF82 binding to the glycoprotein BSA-(Mannose)3.
Below is a list of the Materials used to run the BBA are described below. • 1. LB broth: Supplier: Gibco, #10855 • 2. D-PBS: Supplier: Wisent, #311-425-CL • 3. LB agar plates • 4. 96-well black plate (high binding): Supplier: Costar, #3925 • 5. TopSeal™-A adhesive sealing films; Supplier PerkinElmer, #6005185 • 6. Carbonate-bicarbonate buffer pH 9.6 tablets, Supplier: Medicago, #09-8922-24 • 7. Water, Supplier: Gibco, #15230-162 • 8. Bovine serum albumin (BSA): Supplier: Sigma, #A-7888 • 9. (Man)-3-BSA (α1-3, α1-6 Mannotriose-BSA, 1 mg), V-Labs, #NGP1336, lot#HGDX37-169-1 • 10. Tween 20: Supplier: Sigma, #P9416 • 11. Bright-Glo Luciferase Assay System: Supplier: Promega, #E2610 • 12. LF82/Luciferase strain: Invasive ability of an Escherichia coli strain isolated from the ileal mucosa of a patient with Crohn's disease. Boudeau J, Glasser A L, Masseret E, Joly B, Darfeuille-Michaud A, Infect Immun. 1999, 67(9), 4499-509
Solutions and buffers used to run the BBA are described below. • 1. 0.04M carbonate-bicarbonate buffer (coating buffer) • 2. […] 1 mg of (Man)-3-BSA in 25 mL of water. • 3. 4000 ng/mL BSA • 4. 40 ng/mL BSA • 5. 1 μg/mL BSA-(Man)3: 150 μL of 40 ng/mL BSA-(Man)3+5.85 mL of 40 ng/mL BSA • 6. 0.5 μg/mL BSA-(Man)3 in 0.02M carbonate-bicarbonate buffer. • 7. 20 ng/mL BSA in 0.02M carbonate-bicarbonate buffer • 8. Blocking buffer (2% BSA/DPBS): 1 g of BSA in 50 mL D-PBS • 9. 2× binding buffer (0.2% BSA/D-PBS): 5 mL of blocking buffer+45 mL D-PBS. • 10. Washing buffer (D-PBS/0.01% Tween 20): 10 μL of Tween 20 in 100 mL D-PBS. • 11. 1× Bright-Glo Luciferase substrate:Dilute 1:1 the Bright-Glo Luciferase Assay System with D-PBS The experimental protocol to run the BBA is described below.
Overnight culture of LF82/Luciferase strain: Into two Falcon 50 mL tubes, add 20 mL of LB+20 μL of 50 mg/mL Kanamycin and inoculate with a loop from glycerol stock of the LF82/Luciferase strain. Incubate overnight at 37° C. with no shaking.
Glycoprotein coating of 96-well plates: Add 100 μL/well of 0.5-2 μg/mL BSA-(Man)3. 20 μg/mL BSA is used as the control background. Seal plate using an adhesive sealing film and incubate overnight at room temperature. Wash the 96-well plate three times with 150 μL/well of D-PBS, add 170 μL/well of blocking solution and incubate 45 min (minimum) at room temperature.
Preparation of bacterial suspension: Mix the two cultures tubes (40 mL) and perform a 1:10 dilution in LB (900 μl LB+100 μl culture. Measure optical density (OD) of the bacterial cultures. OD1 ˜5×10^8 cells/mL. Centrifuge LF82 culture for 20 min at 3500 rpm at room temperature. Re-suspend bacterial pellet in D-PBS and centrifuge again for 20 min at 3500 rpm. Re-suspend bacterial pellet in D-PBS to obtain a bacterial concentration of 2×10^9 bacteria/mL. Dilute 1/10 in D-PBS to obtain a final bacterial concentration of 2×10^8 bacteria/mL (=107 bacteria/50 μL). Perform 1/10 serial dilutions in LB of each bacterial suspension, plate 10 μL of dilutions on LB agar plates (final dilutions of 10^−7) and incubate overnight at 37° C. and count CFUs to determine the actual bacteria density in the assay.
Bacterial binding assay: Add 147 μL 2× binding buffer to compound plate (containing 3 μL of compound). After blocking step is performed (at least 45 min), wash plates three times with 200 μL/well of D-PBS. With a 100 μL multichannel manual pipettor, add 50 μL/well of compound diluted in 2× binding buffer. With a 100 μL multichannel manual pipettor, add 50 μL/well of bacterial suspension. Agitate at slow speed for 1 min and incubate 40-75 min at room temperature. Wash 5 times with 150 μL/well of washing buffer and then once with D-PBS. Add 100 μL/well of 1× Bright-Glo Luciferase substrate. […]

Structure (SMILES)	IC50 [µM]
Cc1cc(-c2cccc(C(=O)NC(CO)CO)c2)ccc1O[C@H]1O[C@H](CO)[C@@H](O)[C@H](O)[C@]1(C)O [Compound 62]	0.009 ± 0.003
COc1cc(Cl)ccc1-c1ccc(O[C@H]2O[C@H](CO)[C@@H](O)[C@H](O)[C@]2(C)O)c(C)c1 [Compound 81]	0.185 ± 0.015
CNC(=O)c1cccc(-c2ccc(Cl)c(O[C@H]3O[C@H](CO)[C@@H](O)[C@H](O)[C@]3(C)O)c2)c1 [Compound 44]	0.043 ± 0.012
Cc1cc(-c2cc(F)cc(Cl)c2)ccc1O[C@H]1O[C@H](CO)[C@@H](O)[C@H](O)[C@]1(C)O [Compound 78]	0.094 ± 0.006
Cc1cc(-c2ccc(F)c(F)c2)ccc1O[C@H]1O[C@H](CO)[C@@H](O)[C@H](O)[C@]1(C)O [Compound 88]	2.95 ± 0.15
COc1ccc(-c2ccc(O[C@H]3O[C@H](CO)[C@@H](O)[C@H](O)[C@]3(C)O)c(C)c2)cc1Cl [Compound 96]	0.02 ± 0.009
Cc1cc(-c2cccc(C(=O)N[C@@H](CO)[C@@H](C)O)c2)ccc1O[C@H]1O[C@H](CO)[C@@H](O)[C@H](O)[C@]1(C)O [Compound 72]	0.036 ± 0.009
CNC(=O)c1cccc(-c2ccc(O[C@H]3O[C@H](CO)[C@@H](O)[C@H](O)[C@]3(C)O)cc2OC)c1 [Compound 41]	0.22 ± 0.11
Cc1cc(-c2cccc(C(=O)N3CCN(C)CC3)c2)ccc1O[C@H]1O[C@H](CO)[C@@H](O)[C@H](O)[C@]1(C)O [Compound 68]	0.026 ± 0.004
CNC(=O)c1cccc(-c2ccc(O[C@H]3O[C@H](CO)[C@@H](O)[C@H](O)[C@@]3(O)COCc3ccccc3)c(C)c2)c1 [Compound 23]	0.115 ± 0.025
Cc1cc(-c2cccc(C(=O)N3CCCC3)c2)ccc1O[C@H]1O[C@H](CO)[C@@H](O)[C@H](O)[C@]1(C)O [Compound 70]	0.03 ± 0.001
Cc1cc(C2CC2c2ccc(O[C@H]3O[C@H](CO)[C@@H](O)[C@H](O)[C@]3(C)O)c(C)c2)ccc1O[C@H]1O[C@H](CO)[C@@H](O)[C@H](O)[C@]1(C)O (stereo partly drawn) [Example 123, (2R,3S,4S,5S,6R)-6-(hydroxymethyl)-3-methyl-2-[2-methyl-4-[2-[3-methyl-4-[(2R,3S,4S,5S,6R)-3,4,5-trihydroxy-6-(hydroxymethyl)-3-methyl-tetrahydropyran-2-yl]oxy-phenyl]cyclopropyl]phenoxy]tetrahydropyran-3,4,5-triol]	0.001 ± 0.0005
Cc1cc(-c2ccc(F)cc2F)ccc1O[C@H]1O[C@H](CO)[C@@H](O)[C@H](O)[C@]1(C)O [Compound 75]	0.038 ± 0.018
COc1ccc(C#N)cc1-c1ccc(O[C@H]2O[C@H](CO)[C@@H](O)[C@H](O)[C@]2(C)O)c(C)c1 [Compound 79]	0.02 ± 0.005
Cc1cc(-c2ccc(F)cc2)ccc1O[C@H]1O[C@H](CO)[C@@H](O)[C@H](O)[C@]1(C)O [Compound 74]	0.18 ± 0.04
Cc1cc(-c2cccc(C(=O)NCCN(C)C)c2)ccc1O[C@H]1O[C@H](CO)[C@@H](O)[C@H](O)[C@]1(C)O [Compound 67]	0.015 ± 0.006
CNC(=O)c1cccc(-c2ccc(O[C@H]3O[C@H](CO)[C@@H](O)[C@H](O)[C@]3(C)O)cc2C)c1 [Compound 42]	0.375 ± 0.255

Structure (SMILES)	IC50 [µM]
CC[C@H](O)[C@H]1O[C@H](Oc2ccc(-c3cccc(C(=O)NC)c3)cc2C)[C@@H](O)[C@@H](O)[C@@H]1O [Compound 31]	> 10
COc1cc(OC)cc(-c2ccc(O[C@H]3O[C@H](CO)[C@@H](O)[C@H](O)[C@]3(C)O)c(C)c2)c1 [Compound 94]	0.016 ± 0.006
COc1ccc(OC)c(-c2ccc(O[C@H]3O[C@H](CO)[C@@H](O)[C@H](O)[C@]3(C)O)c(C)c2)c1 [Compound 95]	0.024 ± 0.012
Cc1cc(-c2ccc3cc[nH]c3c2)ccc1O[C@H]1O[C@H](CO)[C@@H](O)[C@H](O)[C@]1(C)O [Compound 89]	0.455 ± 0.095
Cc1cc(-c2ccc(Cl)c(Cl)c2)ccc1O[C@H]1O[C@H](CO)[C@@H](O)[C@H](O)[C@]1(C)O [Compound 82]	0.11 ± 0.031
Cc1cc(-c2cccc(-c3ccc(O[C@H]4O[C@H](CO)[C@@H](O)[C@H](O)[C@]4(C)O)c(C)c3)n2)ccc1O[C@H]1O[C@H](CO)[C@@H](O)[C@H](O)[C@]1(C)O [Example 121, (2R,3S,4S,5S,6R)-6-(hydroxymethyl)-3-methyl-2-[2-methyl-4-[6-[3-methyl-4-[(2R,3S,4S,5S,6R)-3,4,5-trihydroxy-6-(hydroxymethyl)-3-methyl-tetrahydropyran-2-yl]oxy-phenyl]-2-pyridyl]phenoxy]tetrahydropyran-3,4,5-triol]	0.006 ± 0.0008
CNC(=O)c1cccc(-c2ccc(O[C@H]3O[C@H](CO)[C@@H](O)[C@H](O)[C@]3(C)O)cc2C(F)(F)F)c1 [Compound 43]	0.785 ± 0.474
CNC(=O)c1cccc(-c2ccc(O[C@H]3O[C@H](CO)[C@@H](O)[C@H](O)[C@@]3(O)CO)c(C)c2)c1 [Compound 24]	0.019 ± 0.003
OC[C@H]1O[C@@]2(CCc3cc(-c4ccc5c(c4)CC[C@]4(O5)O[C@H](CO)[C@@H](O)[C@H](O)[C@@H]4O)ccc3O2)[C@@H](O)[C@@H](O)[C@@H]1O [Example 126, (2R,3′S,4′S,5′S,6′R)-6′-(hydroxymethyl)-6-[(2R,3′S,4′S,5′S,6′R)-3′,4′,5′-trihydroxy-6′-(hydroxymethyl)spiro[chromane-2,2′-tetrahydropyran]-6-yl]spiro[chromane-2,2′-tetrahydropyran]-3′,4′,5′-triol]	0.008
CNC(=O)c1ccc(CCO[C@@]2(C)O[C@H](CO)[C@@H](O)[C@H](O)[C@@H]2O)cc1 [compound 35]	1.8 ± 0.3
CNC(=O)c1cccc(-c2ccc(O[C@H]3O[C@H](CO)[C@@H](O)[C@H](O)[C@@]3(O)COCCOCc3ccccc3)c(C)c2)c1 [Compound 49]	0.28 ± 0.02
Cc1cc(-c2cccc(C(=O)NCC3CCN(C(=O)OC(C)(C)C)CC3)c2)ccc1O[C@H]1O[C@H](CO)[C@@H](O)[C@H](O)[C@]1(C)O [Compound 66]	0.011 ± 0.003
Cc1cc(-c2cccc(S(N)(=O)=O)c2)ccc1O[C@H]1O[C@H](CO)[C@@H](O)[C@H](O)[C@]1(C)O [Compound 84]	0.01 ± 0.002
Cc1cc(-c2cccc(C(=O)NCCN3CCN(C)CC3)c2)ccc1O[C@H]1O[C@H](CO)[C@@H](O)[C@H](O)[C@]1(C)O [Compound 58]	0.013 ± 0.001
Cc1cc(-c2cc(F)cc(F)c2)ccc1O[C@H]1O[C@H](CO)[C@@H](O)[C@H](O)[C@]1(C)O [Compound 76]	0.024 ± 0.003
C[C@@]1(O)[C@@H](Oc2ccc(-c3ccc(O[C@H]4O[C@H](CO)[C@@H](O)[C@H](O)[C@]4(C)O)cc3)cc2)O[C@H](CO)[C@@H](O)[C@@H]1O [Example 106, (2R,3S,4S,5S,6R)-6-(hydroxymethyl)-3-methyl-2-[4-[4-[(2R,3S,4S,5S,6R)-3,4,5-trihydroxy-6-(hydroxymethyl)-3-methyl-tetrahydropyran-2-yl]oxyphenyl]phenoxy]tetrahydropyran-3,4,5-triol]	0.435 ± 0.115
Cc1cc(-c2cccc(Cl)c2F)ccc1O[C@H]1O[C@H](CO)[C@@H](O)[C@H](O)[C@]1(C)O [Compound 93]	0.215 ± 0.005
